Among the data in patent US20160030416A1, “METHODS OF TREATING B2-BRADYKININ RECEPTOR MEDIATED ANGIOEDEMA” (SHIRE HUMAN GENETIC THERAPIES, INC., priority 2013, published 2016) are EC50 values, retold here.

One may read the EC50 as the midpoint of the concentration-response curve. High values mean weaker potency, low ones greater potency.

The assay deals with BK-induced human umbilical vein contractions. As to the kind of experiment: cells. The protocol: The inhibition effect of CFMQ on bradykinin induced […] was examined in an ex vivo functional assay of human umbilical vein contraction, which is considered a gold standard for bradykinin activity measurements. […] Firazyr®). Following a 30 minute incubation, BK-induced vein contractions were initiated in a cumulative manner (final concentration of 10 μM), followed by maximal calibration contraction induction by 10 μM serotonin. The tension increase for each dose response was calculated in relation to the (maximal) response towards serotonin, graphed as a dose-response curve and used to calculate an effective concentration at 50% (EC50) value (FIG. 6)

SMILES strings stand for the structures.

`NC(N)=NCCC[C@@H](N)C(=O)N[C@@H](CCCN=C(N)N)C(=O)N1CCC[C@H]1C(=O)N1C[C@H](O)C[C@H]1C(=O)NCC(=O)N[C@@H](Cc1cccs1)C(=O)N[C@@H](CO)C(=O)N1Cc2ccccc2C[C@@H]1C(=O)N1[C@H](C(=O)N[C@@H](CCCN=C(N)N)C(=O)O)C[C@@H]2CCCC[C@@H]21` [Firazyr® (icatibant), icatibant, reference compound] showed a concentration giving a half-maximal response (EC50) of 2.5 nM.
